Earlier results as cited in patent US4658014A, “Synthetic peptides with calcitonin-like activity” (priority 1985, dated 1987).

Conditions: versus natural eel calcitonin

[Asu^1,7 ] eel calcitonin
activity relative to the naturally occuring hormone with the disulfide bond: comparable activity
